Results as given in patent publication US20120095058A1, “Method of preventing survival of retrovirally cells and of inhibiting formation of infectious retroviruses” (priority 2003, published 2012).

Columns and labels:
[1] = target: T1, deoxyhypusine hydroxylase (DOHH) (Homo sapiens, UniProt Q9BU89); experiment: DOHH activity in HPV-16 infected SiHa cells by metabolic labeling with 3H-spermidine; type: cell-based; parameters: inhibition of DOHH: dose or concentration left out as unconfirmed; settings: for inhibition of DOHH: HPV-positive SiHa cells
T1 construct: endogenous in cells; host or cells: HIV-1 infected H9 cells
T1 sequence (Q9BU89 1-302): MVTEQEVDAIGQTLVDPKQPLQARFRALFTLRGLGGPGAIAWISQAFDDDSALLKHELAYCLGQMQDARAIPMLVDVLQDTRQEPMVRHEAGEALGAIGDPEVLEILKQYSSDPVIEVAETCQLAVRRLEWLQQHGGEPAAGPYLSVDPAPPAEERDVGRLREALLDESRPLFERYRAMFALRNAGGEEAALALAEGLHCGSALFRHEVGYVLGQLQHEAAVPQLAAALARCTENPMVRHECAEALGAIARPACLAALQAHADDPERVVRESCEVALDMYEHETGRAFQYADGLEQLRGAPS
Protocol: (§1) Methods: The drug deferiprone (DEF) and ciclopirox (CPX), known as DOHH inhibitors, were compared to the chelators 2-imidazoyl-4-methylphenol (IMP) and desferal (DES). Apoptosis of HIV-1 infected H9 cells, HPV-16 infected SiHa cells, and uninfected lymphocytes was analyzed by TUNEL flow cytometry. DOHH) activity was measured by metabolic labeling with 3H-spennidine.

[2] = target: T1, deoxyhypusine hydroxylase (DOHH); experiment: DOHH activity in HIV-1 infected H9 cells by metabolic labeling with 3H-spermidine; type: cell-based; parameters: inhibition of DOHH: dose or concentration left out as unconfirmed; settings: for concentration with complete suppression of DOHH activity: H9 cells; for inhibition of cellular DOHH: HIV-1 infected H9 cells, dose dependence
Protocol: as §1
DOHH activity was measured by metabolic labeling with radioactive spermidine (see FIG. 2), followed by protein hydrolysis\ and amino acid analysis as reported (Hanauske-Abel et al., FEBS Left. 366, 92-98, 1995, which is hereby incorporated by reference). This finding corroborates the results obtained with purified DOHH (FIG. 3) and is consistent with the findings presented in FIG. 1.

HIV-1 infected H9 cells = experiment: Apoptosis of HIV-1 infected H9 cells by TUNEL flow cytometry; type: cell-based, human; settings: for apoptosis at maximal concentration: H9 cells, IMP 400 μM, DES 20 μM; for initiation of apoptosis: HIV-1 infected lymphocyte cell line H9, dose dependence
Protocol: as §1

uninfected lymphocytes = experiment: Apoptosis of uninfected lymphocytes by TUNEL flow cytometry; type: cell-based, human; settings: for apoptosis of lymphocytes harvested from healthy volunteers: exposed for 20 hours
Protocol: as §1

patient-isolate of HIV-1 [3] = experiment: HIV-1 p24, RNA and proviral DNA in peripheral blood mononuclear cells chronically infected with a patient isolate; type: cell-based, human; settings: FIG. 9
Protocol: The double y-axis plot of FIG. 9 summarizes the effect of deferiprone on HIV protein synthesis (p24 [left y-axis]), HIV RNA synthesis (copies [right y-axis]), and the presence of HIV DNA, integrated as provirus into the genome of the infected host cells. The cell system and mode of infection used are the same as in FIGS. 6 to 8, i.e. freshly isolated peripheral blood mononuclear cells infected with a patient-isolate of HIV-1, except that the compound was added only after the full-blown infection had developed. The design requires the addition of uninfected cells very second day, so as to keep the infection from burning out. […] The near-eradication of provirus is attributed to the selective apoptotic ablation of HIV-infected cells by DOHH inhibitors (see FIG. 8).

HIV-1 = experiment: p24 formation in HIV-1-infected H9 cells by immunoassay; type: cell-based, human; settings: FIG. 5
[4] = tested on: peripheral blood mononuclear cells acutely infected with HIV-1; experiment: Apoptosis in fresh peripheral blood mononuclear cells acutely infected with a patient isolate of HIV-1; type: cell-based, human; settings: preferentially when acutely infected with HIV-1, FIG. 8
Excerpt: This effect is ascribed to the suppression of retroviral antiapoptotic proteins as part of the general suppression of retroviral protein synthesis, as exemplified by the decrease in p24 (FIG. 6).

patient-isolate of HIV-1 [5] = experiment: HIV-1 p24 and RNA formation in fresh peripheral blood mononuclear cells acutely infected with a patient isolate; type: cell-based, human; settings: acutely infected PBMC
Excerpt: This system is considered a close model for the actual infection of a human being by ‘wild-type’ HIV-1.

[6] = tested on: HIV-1 spliced and unspliced transcripts; experiment: RNase protection assay of spliced and unspliced HIV-1 transcripts in transfected 293T cells; type: cell-based, human; settings: 30 μM, FIG. 1A
Protocol: (§2) (A, B) Inhibition of accumulation of spliced and unspliced HIV transcripts. Human 293 T cells were co-transfected with plasmids carrying the HIV-1 molecular clone (10 μg) and a CMV-Renilla luciferase construct (2 μg). Ciclopirox (CPX) or Princeton 2 (P2) were added to a final concentration of 30 μM 3 hours later. RNA was isolated from nuclear and cytoplasmic fractions at 15 hours after transfection. RNase protection assays used probes for the HIV-1 major splice donor site sequence (A), and Renilla luciferase (B). Arrows indicate the positions of protected probe fragments corresponding to unspliced (US) and spliced (S) HIV-1 RNA and Renilla luciferase (R-Luc). Lanes marked ‘Probe’ contain undigested probe RNA equivalent to 10% of the input to protection assays. The radioactivity of the protected bands, quantified with a phosphoimager using ImageQuant, is expressed in relative units.
(§3) Cells and plasmids. 293T cells were grown in Dulbecco's Modified Eagle's medium with 10% fetal bovine serum. pBSIIKS+HIV(+80-341) was constructed by subcloning the PCR-amplified HIV-1 sequence corresponding to nucleotides +80 to +341 of the HIV molecular clone (pNL4-3-Luc E-) between the SmaI and HindIII sites of the pBluescriptllKS+ vector (Stratagene, Calif.). Plasmids pSP-rluc and pCMV-Renilla were purchased from Promega (Madison, Wis.). […]

[7] = tested on: HIV-1 molecular clone pNL4-3-Luc E-; experiment: Firefly luciferase reporter in full-length HIV-1 molecular clone pNL4-3-Luc E-, 293T cells; type: cell-based, human; settings: 30 μM, 12 hours post-transfection, FIG. 1C left
Protocol: (§4) (C) Specificity of inhibition by CPX. Cells were co-transfected with 500 ng pNL4-3-Luc E-, or with 100 ng of HIV-1 LTR-firefly luciferase reporter plasmid and 20 ng of pRSV-Tat, together with 100 ng of CMV-Renilla luciferase reporter plasmid. Buffer (Control), 30 μM ciclopirox (CPX), or 30 μM Princeton 2 (P2) was added during transfection, and cells were harvested at 12 hours post-transfection for luciferase assay. Results are presented as the ratio of firefly luciferase to Renilla luciferase, normalized to the controls, with standard deviations indicated.
(§5) Cells and plasmids. 293T cells were grown in Dulbecco's Modified Eagle's medium with 10% fetal bovine serum. pBSIIKS+HIV(+80-341) was constructed by subcloning the PCR-amplified HIV-1 sequence corresponding to nucleotides +80 to +341 of the HIV molecular clone (pNL4-3-Luc E-) between the SmaI and HindIII sites of the pBluescriptllKS+ vector (Stratagene, Calif.). Plasmids pSP-rluc and pCMV-Renilla were purchased from Promega (Madison, Wis.). The plasmids pRSV-Tat and pLTR-firefly luciferase were described earlier (Hogue et al. MCB 2003). The HIV-1 molecular clone pNL4-3-Luc E-, in which part of the Nef gene is replaced by firefly luciferase and the envelope gene is mutated (Chen B. K., J. Virol. 1994), was generously supplied by Dr. D. Baltimore.
(§6) Gene expression assays. […]

[8] = tested on: HIV-1 LTR-firefly luciferase reporter; experiment: HIV-1 LTR-firefly luciferase reporter with pRSV-Tat, 293T cells; type: cell-based, human; settings: 30 μM, compared to control and P2, FIG. 1C right
Protocol: as §4, §5, §6

purified DOHH = target: T2, purified DOHH (Homo sapiens, UniProt Q9BU89); experiment: Inhibition of purified DOHH with labeled deoxyhypusine-containing eIF5A substrate; type: biochemical; settings: FIG. 3
T2 sequence (Q9BU89 1-302): T1 sequence (Q9BU89 1-302)
Protocol: The assay was conducted by using purified enzyme and offering deoxhypusine-containing, deoxhypusine-labeled eIF5A as substrae, plus the appropriate cofactors (see FIG. 2). Enzyme activity was assessed by determining the amount of mature, ie. radioactive hypusine-containing eIF5A via protein hydrolysis, followed by amino acid analysis.

[9] = tested on: HPV-16 infected SiHa cells; experiment: Apoptosis of HPV-16 infected SiHa cells by TUNEL flow cytometry; type: cell-based, human
Protocol: as §1

[10] = tested on: CMV-Renilla luciferase transcript; experiment: RNase protection assay of CMV-Renilla luciferase transcript in transfected 293T cells; type: cell-based, human; settings: 30 μM, FIG. 1B
Protocol: as §2, §3

## 2-imidazoyl-4-methylphenol [IMP]
[1]
  inhibition of DOHH: uniformly ineffective
[2]; HIV-positive H9 cells
  inhibition of DOHH: uniformly ineffective
HIV-1 infected H9 cells
  apoptosis at maximal concentration: failed to elicit apoptosis

## CC(=O)N(O)CCCCCNC(=O)CCC(=O)N(O)CCCCCNC(=O)CCC(=O)N(O)CCCCCN [DES]
HIV-1 infected H9 cells
  apoptosis at maximal concentration: failed to elicit apoptosis
Uninfected lymphocytes
  apoptosis of lymphocytes harvested from healthy volunteers: failed to respond with apoptosis

## Cc1c(O)c(=O)ccn1C [deferiprone]
[1]; dose dependence
  inhibition of DOHH: inhibited DOHH
patient-isolate of HIV-1 [3]; compound added after full-blown infection
  HIV protein synthesis (p24): undetectable
patient-isolate of HIV-1 [3]; end of experiment
  HIV DNA integrated as provirus: at best a trace of integrated provirus
patient-isolate of HIV-1 [3]; over the days after p24 became undetectable
  HIV RNA: dropped to the limit of detection
[2]
  concentration with complete suppression of DOHH activity: 200 µM
  inhibition of cellular DOHH: inhibited DOHH
HIV-1 infected H9 cells
  initiation of apoptosis: triggered dose-dependent apoptosis
Uninfected lymphocytes
  apoptosis of lymphocytes harvested from healthy volunteers: failed to respond with apoptosis

## Cc1cc(C2CCCCC2)n(O)c(=O)c1 [ciclopirox, 6-cyclohexyl-l-hydroxy-4-methyl-2(1H)-pyridone]
[1]; 40 μM
  DOHH activity of SiHa cells: totally suppressed
[1]; dose dependence
  inhibition of DOHH: inhibited DOHH
HIV-1
  retroviral protein synthesis assessed via p24: suppressed retroviral protein synthesis
[4]
  apoptosis in PBMC: triggers apoptosis
patient-isolate of HIV-1 [5]; FIG. 6
  formation of retroviral p24 protein: efficient in suppressing
patient-isolate of HIV-1 [5]; PCR, FIG. 7
  formation of retroviral RNA, viral load: efficient in suppressing
[2]
  concentration with complete suppression of DOHH activity: 40 µM
  inhibition of cellular DOHH: dose-dependent inhibition
[2]; listed as (2)
  inhibition of cellular DOHH: dose-dependent inhibition
[2]; listed as CPX
  inhibition of cellular DOHH: inhibited DOHH
HIV-1 infected H9 cells; 40 μM, 18 hours (overnight), HIV-1 infected H9 cells
  apoptosis, share of all cells: more than 30%
HIV-1 infected H9 cells
  initiation of apoptosis: dose-dependent initiation of apoptosis
HIV-1 infected H9 cells; listed as CPX
  initiation of apoptosis: triggered dose-dependent apoptosis
HIV-1 infected H9 cells; comparison compound class not given
  potency in causing a very similar spectrum of effects: about ten times more potent
[6]
  accumulation of spliced and unspliced HIV-1 transcripts: selectively suppresses
[7]
  expression of firefly luciferase reporter encoded in full-length genomic HIV-1 clone: distinctly more inhibitory effect than P2
[7]; listed as Ciclopirox
  expression of firefly luciferase reporter encoded in full-length genomic HIV-1 clone: reduces gene expression
Uninfected lymphocytes
  apoptosis in native human lymphocytes not infected by HIV-1: does not trigger apoptosis
  apoptosis of lymphocytes harvested from healthy volunteers: failed to respond with apoptosis
[8]
  luciferase gene expression from HIV-1 LTR reporter lacking RRE: did not reduce luciferase gene expression
Purified DOHH
  inhibition of purified DOHH: disctinctly more susceptible to inhibition
[9]
  apoptosis in HPV infected human keratinocytes: does not trigger apoptosis
[9]; 40 μM, even after 120 hours
  apoptosis in SiHa cells: did not initiate apoptosis
[10]
  transcript accumulation encoded by cytomegalovirus (CMV): does not affect transcript accumulation
